Data reported in ChEMBL document CHEMBL5038636, “Dihydrolucilactaene, a Potent Antimalarial Compound from Fusarium sp. RK97-94” (J Nat Prod, 2022).

What was measured:
Plasmodium falciparum [1] = experiment: Antimalarial activity against wild-type Plasmodium falcipuram 3D7 assessed as growth inhibition; format: functional, organism-based
Escherichia coli = experiment: Antibacterial activity against Escherichia coli HO141 assessed as growth inhibition; format: functional, organism-based
Staphylococcus aureus = experiment: Antibacterial activity against Staphylococcus aureus 209 assessed as growth inhibition; format: functional, organism-based
HeLa = experiment: Cytotoxicity against human HeLa cells assessed as growth inhibition; format: functional, cell-based
HL-60 = experiment: Cytotoxicity against human HL-60 cells assessed as growth inhibition; format: functional, cell-based
T98G = experiment: Cytotoxicity against human T98G cells assessed as growth inhibition; format: functional, cell-based
Candida albicans = experiment: Antifungal activity against Candida albicans JCM1542 assessed as growth inhibition; format: functional, organism-based
Aspergillus fumigatus = experiment: Antifungal activity against Aspergillus fumigatus Af293 assessed as growth inhibition; format: functional, organism-based
Pyricularia oryzae = experiment: Antifungal activity against Pyricularia oryzae kita-1 assessed as growth inhibition; format: functional, organism-based
MKN-74 = experiment: Cytotoxicity against human MKN74 cells assessed as growth inhibition; format: functional, cell-based
Plasmodium falciparum [2] = experiment: Antimalarial activity against chloroquine-resistant Plasmodium falcipuram K1 assessed as growth inhibition; format: functional, organism-based

C[C@@H]1CC[C@H]2[C@@H](C)C(=O)O[C@@H]3O[C@@]4(C)CC[C@@H]1[C@]32OO4 [ARTEMISININ]
IC50 (Plasmodium falciparum [1]): 0.019 µM

O=C(N[C@H](CO)[C@H](O)c1ccc([N+](=O)[O-])cc1)C(Cl)Cl [CHLORAMPHENICOL]
IC50 (Escherichia coli): 4.6 µM | IC50 (Staphylococcus aureus): 5.4 µM

CC(=O)O[C@H]1C(=O)[C@@]2(C)[C@H]([C@H](OC(=O)c3ccccc3)[C@]3(O)C[C@H](OC(=O)[C@H](O)[C@@H](NC(=O)c4ccccc4)c4ccccc4)C(C)=C1C3(C)C)[C@]1(OC(C)=O)CO[C@@H]1C[C@@H]2O [PACLITAXEL]
IC50 (HeLa): 0.0043 µM | IC50 (HL-60): 0.0022 µM | IC50 (T98G): 8.7 µM

C\C=C(/C=C(C)/C=C/C=C/C=C(\C)C(=O)[C@H]1C(=O)N[C@]2(O)CCO[C@H]12)C(=O)OC
IC50 (Plasmodium falciparum [1]): 0.15 µM | IC50 (Escherichia coli): > 70 µM | IC50 (HeLa): 24.9 µM | IC50 (Candida albicans): > 70 µM | IC50 (Aspergillus fumigatus): > 70 µM | IC50 (Staphylococcus aureus): > 70 µM | IC50 (Pyricularia oryzae): > 70 µM | IC50 (HL-60): 17.4 µM

C[C@@H]1[C@H](O)[C@@H](C)/C=C/C=C/C=C/C=C/C=C/C=C/C=C/[C@H](O[C@@H]2O[C@H](C)[C@@H](O)[C@H](N)[C@@H]2O)C[C@@H]2O[C@](O)(C[C@@H](O)C[C@@H](O)[C@H](O)CC[C@@H](O)C[C@@H](O)CC(=O)O[C@H]1C)C[C@H](O)[C@H]2C(=O)O [AMPHOTERICIN B]
IC50 (Candida albicans): 0.03 µM | IC50 (Aspergillus fumigatus): 0.21 µM | IC50 (Pyricularia oryzae): 0.16 µM

C\C=C(/C=C(C)/C=C/C=C/C=C(\C)C(=O)[C@@]1(O)C(=O)N[C@]2(O)CCO[C@H]12)C(=O)OC
IC50 (Plasmodium falciparum [1]): 0.67 µM | IC50 (HeLa): > 70 µM | IC50 (HL-60): > 70 µM

C\C=C(/C=C(C)/C=C/C=C/C=C(\C)C(O)[C@]12O[C@H]1[C@@](O)(CCO)NC2=O)C(=O)OC (some centres not stated)
IC50 (Plasmodium falciparum [1]): 62.1 µM | IC50 (Escherichia coli): > 70 µM | IC50 (HeLa): > 70 µM | IC50 (Candida albicans): > 70 µM | IC50 (MKN-74): > 70 µM | IC50 (Aspergillus fumigatus): > 70 µM | IC50 (Staphylococcus aureus): > 70 µM | IC50 (Pyricularia oryzae): > 70 µM | IC50 (HL-60): > 70 µM | IC50 (T98G): > 70 µM

C\C=C(/C=C(C)/C=C/C=C/C=C(\C)C(=O)C1C[C@@](O)(CCO)NC1=O)C(=O)OC (some centres not stated)
IC50 (Plasmodium falciparum [1]): 0.0015 µM | IC50 (Escherichia coli): > 70 µM | IC50 (HeLa): 21.5 µM | IC50 (Candida albicans): > 70 µM | IC50 (MKN-74): > 70 µM | IC50 (Aspergillus fumigatus): > 70 µM | IC50 (Staphylococcus aureus): > 70 µM | IC50 (Pyricularia oryzae): 6.7 µM | IC50 (HL-60): 37.7 µM | IC50 (T98G): > 70 µM | IC50 (Plasmodium falciparum [2]): 0.0015 µM

C\C=C(/C=C(C)/C=C/C=C/C=C(\C)C(=O)[C@]12O[C@H]1[C@@](O)(CCO)NC2=O)C(=O)OC
IC50 (Plasmodium falciparum [1]): 1.8 µM | IC50 (Escherichia coli): > 70 µM | IC50 (HeLa): 14.1 µM | IC50 (Candida albicans): > 70 µM | IC50 (Aspergillus fumigatus): > 70 µM | IC50 (Staphylococcus aureus): > 70 µM | IC50 (Pyricularia oryzae): > 70 µM | IC50 (HL-60): 15.8 µM

C\C=C(/C=C(C)/C=C/C=C/C=C(\C)C(=O)[C@H]1C(=O)N[C@]2(O)CCO[C@H]12)C(=O)O
IC50 (Plasmodium falciparum [1]): 43.9 µM | IC50 (Escherichia coli): > 70 µM | IC50 (HeLa): > 70 µM | IC50 (Candida albicans): > 70 µM | IC50 (Aspergillus fumigatus): > 70 µM | IC50 (Staphylococcus aureus): > 70 µM | IC50 (Pyricularia oryzae): > 70 µM | IC50 (HL-60): > 70 µM
